Assay results reported in PubChem BioAssay AID330 (DTP/NCI, 2004).
“And” between values parts separate entries of the source, which are not always exact repeats. Identical values can stand only once. Inconclusive results and toxic doses are left out.

Test system: P388 leukemia ip, CD2F1 mice, survival T/C
Assay: NCI In Vivo Anticancer Drug Screen. Data for tumor model P388 Leukemia (intraperitoneal) in CD2F1 (CDF1) mice
Settings: endpoint: median survival time, higher = longer survival
Outline: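 Mice carrying the transplanted tumor received test compound or vehicle. Survival was recorded in each group, and the value is the treated-group measurement divided by that of the vehicle-treated control group.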

[1] = dose: 100.0 mg/kg/injection, schedule: Q01DX001 (ip), vehicle: Klucel (hydroxypropylcellulose) (HPC)
[2] = dose: 200.0 mg/kg/injection, schedule: Q01DX001 (ip), vehicle: Klucel (hydroxypropylcellulose) (HPC)
[3] = dose: 400.0 mg/kg/injection, schedule: Q01DX001 (ip), vehicle: Klucel (hydroxypropylcellulose) (HPC)
[4] = dose: 60.0 mg/kg/injection, schedule: Q01DX005 (ip), vehicle: saline with Tween-80
[5] = dose: 120.0 mg/kg/injection, schedule: Q01DX005 (ip), vehicle: saline with Tween-80
[6] = dose: 240.0 mg/kg/injection, schedule: Q01DX005 (ip), vehicle: saline with Tween-80
[7] = dose: 50.0 mg/kg/injection, schedule: Q01DX005 (ip), vehicle: Klucel (hydroxypropylcellulose) (HPC)
[8] = dose: 100.0 mg/kg/injection, schedule: Q01DX005 (ip), vehicle: Klucel (hydroxypropylcellulose) (HPC)
[9] = dose: 200.0 mg/kg/injection, schedule: Q01DX005 (ip), vehicle: Klucel (hydroxypropylcellulose) (HPC)
[10] = dose: 100.0 mg/kg/injection, schedule: Q01DX009 (ip), vehicle: saline with Tween-80
[11] = dose: 200.0 mg/kg/injection, schedule: Q01DX009 (ip), vehicle: saline with Tween-80
[12] = dose: 400.0 mg/kg/injection, schedule: Q01DX009 (ip), vehicle: saline with Tween-80
[13] = dose: 25.0 mg/kg/injection, schedule: Q01DX009 (ip), vehicle: Klucel (hydroxypropylcellulose) (HPC)
[14] = dose: 50.0 mg/kg/injection, schedule: Q01DX009 (ip), vehicle: Klucel (hydroxypropylcellulose) (HPC)
[15] = dose: 100.0 mg/kg/injection, schedule: Q01DX009 (ip), vehicle: Klucel (hydroxypropylcellulose) (HPC)
[16] = dose: 50.0 mg/kg/injection, schedule: Q01DX005 (ip), vehicle: saline with Tween-80
[17] = dose: 100.0 mg/kg/injection, schedule: Q01DX005 (ip), vehicle: saline with Tween-80
[18] = dose: 200.0 mg/kg/injection, schedule: Q01DX005 (ip), vehicle: saline with Tween-80
[19] = dose: 25.0 mg/kg/injection, schedule: Q01DX009 (ip), vehicle: saline
[20] = dose: 50.0 mg/kg/injection, schedule: Q01DX009 (ip), vehicle: saline with Tween-80
[21] = dose: 100.0 mg/kg/injection, schedule: Q04DX003 (ip), vehicle: saline with Tween-80
[22] = dose: 200.0 mg/kg/injection, schedule: Q04DX003 (ip), vehicle: saline with Tween-80
[23] = dose: 400.0 mg/kg/injection, schedule: Q04DX003 (ip), vehicle: saline with Tween-80

COc1cc(OC)c2c(c1)C(=O)[C@]1(C)C3(C)OC(=O)C(c4ccccc43)[C@]21C (some centres not stated)
T/C [1]: 102 % of control
T/C [2]: 100 % of control
T/C [3]: 105 % of control

COc1cccc(C(c2cc3c(cc2O)OCO3)N2CCOCC2)c1OC (configuration not stated)
T/C [4]: 119 % of control
T/C [5]: 119 % of control
T/C [6]: 117 % of control

COc1cc(C(=O)N/N=C/C(=O)O)cc(OC)c1OC
T/C [7]: 101 % of control
T/C [8]: 104 % of control
T/C [9]: 101 % of control

OC1(c2ccccc2)CN(Cc2ccccc2)CC(c2ccccc2)O1 (configuration not stated)
T/C [10]: 98 % of control
T/C [11]: 100 % of control
T/C [12]: 106 % of control

O=c1[nH]cnc2c1nc(Br)n2C1OC(CO)C(O)C1O (configuration not stated)
T/C (dose: 6.25 mg/kg/injection, schedule: Q01DX009 (ip), vehicle: Klucel (hydroxypropylcellulose) (HPC)): 94 % of control
T/C (dose: 12.5 mg/kg/injection, schedule: Q01DX009 (ip), vehicle: Klucel (hydroxypropylcellulose) (HPC)): 94 % of control
T/C [13]: 94 % of control
T/C [14]: 97 % of control
T/C [15]: 94 % of control

Cc1onc(-c2ccccc2Cl)c1C1=N/C(=C/c2cc(Cl)cc(Cl)c2O)C(=O)O1
T/C [14]: 114 % of control
T/C [15]: 104 % of control
T/C (dose: 200.0 mg/kg/injection, schedule: Q01DX009 (ip), vehicle: Klucel (hydroxypropylcellulose) (HPC)): 96 % of control

NNC(=O)C1C2c3ccccc3C(c3ccccc32)C1C(=O)O (configuration not stated)
T/C [4]: 99 % of control
T/C [5]: 101 % of control
T/C [6]: 103 % of control

C[Si]1(C)CC[Si](C)(C)OS(=O)(=O)O1
T/C (dose: 27.5 mg/kg/injection, schedule: Q01DX005 (ip), vehicle: Klucel (hydroxypropylcellulose) (HPC)): 102 % of control
T/C (dose: 55.0 mg/kg/injection, schedule: Q01DX005 (ip), vehicle: Klucel (hydroxypropylcellulose) (HPC)): 100 % of control

CCCc1nc(N)[nH]c(=O)c1CCCCc1ccccc1
T/C [4]: 90 % of control and 96 % of control
T/C [5]: 88 % of control and 103 % of control
T/C [6]: 96 % of control and 87 % of control

Nc1cccc(CCCCc2ccc(Cl)c(S(=O)(=O)F)c2)c1
T/C (dose: 50.0 mg/kg/injection, schedule: Q01DX009 (ip), vehicle: saline sonified): 86 % of control
T/C (dose: 100.0 mg/kg/injection, schedule: Q01DX009 (ip), vehicle: saline sonified): 86 % of control
T/C (dose: 200.0 mg/kg/injection, schedule: Q01DX009 (ip), vehicle: saline sonified): 95 % of control

Cc1c(Cl)cccc1Nc1ncccc1C(=O)OCC(O)CO (configuration not stated)
T/C [16]: 96 % of control
T/C [17]: 98 % of control
T/C [18]: 95 % of control

CCOC(=O)CCN(C)C1CCCCC1C(=O)OCC (configuration not stated)
T/C [19]: 100 % of control
T/C (dose: 50.0 mg/kg/injection, schedule: Q01DX009 (ip), vehicle: saline): 101 % of control
T/C (dose: 100.0 mg/kg/injection, schedule: Q01DX009 (ip), vehicle: saline): 107 % of control

COc1cc(Br)c(CC(NC=O)c2ccc3c(c2)OCO3)cc1OC (configuration not stated)
T/C (dose: 15.0 mg/kg/injection, schedule: Q01DX005 (ip), vehicle: saline with Tween-80): 107 % of control
T/C (dose: 30.0 mg/kg/injection, schedule: Q01DX005 (ip), vehicle: saline with Tween-80): 104 % of control
T/C [4]: 89 % of control and 94 % of control

Nc1nc(-c2cc(C(c3ccccc3)c3ccccc3)nc(N)n2)cc(C(c2ccccc2)c2ccccc2)n1
T/C [4]: 105 % of control
T/C [5]: 109 % of control
T/C [6]: 101 % of control

COc1cc(CO)c(I)c(OC)c1OC
T/C [1]: 99 % of control
T/C [2]: 97 % of control

CCCCCCCCCCCCCCCCCC(=O)NC1c2ccccc2Oc2ccccc21
T/C [16]: 87 % of control
T/C [17]: 90 % of control
T/C [18]: 92 % of control

NS(=O)(=O)c1ccc(N=c2c3ccccc3n(-c3ccccc3)c3ccccc23)cc1
T/C [16]: 102 % of control
T/C [17]: 93 % of control
T/C [18]: 90 % of control

Clc1ccccc1C(Nc1nncs1)Nc1nncs1
T/C [4]: 106 % of control
T/C [5]: 113 % of control
T/C [6]: 122 % of control

CSC1(CC(=O)N(C)C)C(=O)N(C)c2ccccc21 (configuration not stated)
T/C (dose: 25.0 mg/kg/injection, schedule: Q01DX009 (ip), vehicle: saline with Tween-80): 100 % of control
T/C [20]: 94 % of control
T/C [10]: 115 % of control

C=C1C(C)C2C(Cc3ccccc3)NC(=O)C23OC(=O)/C=C\CC(=O)CCC(C)C/C=C/C3C1O (configuration not stated)
T/C (dose: 5.0 mg/kg/injection, schedule: Q01DX009 (ip), vehicle: Klucel (hydroxypropylcellulose) (HPC)): 110 % of control
T/C (dose: 10.0 mg/kg/injection, schedule: Q01DX009 (ip), vehicle: Klucel (hydroxypropylcellulose) (HPC)): 118 % of control

C=CCCCC(=O)CCCCBr
T/C [20]: 122 % of control
T/C [10]: 108 % of control
T/C [11]: 110 % of control

C1COCCCOCCCOCCCC2(CCCOCCCOC1)OCCO2
T/C [16]: 102 % of control
T/C [17]: 102 % of control
T/C [18]: 101 % of control

CC(=O)NC1=C(O)C2C(c3ccc(Cl)cc3)C(C#N)C(=O)N2C1=O (configuration not stated)
T/C (dose: 100.0 mg/kg/injection, schedule: Q01DX001 (ip), vehicle: saline): 100 % of control
T/C (dose: 200.0 mg/kg/injection, schedule: Q01DX001 (ip), vehicle: saline): 103 % of control
T/C (dose: 400.0 mg/kg/injection, schedule: Q01DX001 (ip), vehicle: saline): 98 % of control

N#CCc1ccccc1C#N
T/C (dose: 12.5 mg/kg/injection, schedule: Q01DX005 (ip), vehicle: saline with Tween-80): 100 % of control
T/C (dose: 25.0 mg/kg/injection, schedule: Q01DX005 (ip), vehicle: saline with Tween-80): 99 % of control
T/C [16]: 101 % of control

O=C(O)C#Cc1cccnc1
T/C [4]: 106 % of control
T/C [5]: 98 % of control
T/C [6]: 91 % of control

CN(Cc1cnc2nc(N)[nH]c(=O)c2c1)c1ccc(C(=O)NC(CCC(=O)O)C(=O)O)cc1 (configuration not stated)
T/C [16]: 98 % of control
T/C [17]: 100 % of control
T/C [18]: 111 % of control

COC(=O)/C=C(\C(=O)OC)C1=C(N2CCCC2)CC(C)(C)CC1=O
T/C [7]: 102 % of control
T/C [8]: 100 % of control and 95 % of control
T/C [9]: 100 % of control and 101 % of control

O=C(Nc1c[nH]c(=O)[nH]c1=O)C(Cl)Cl
T/C (dose: 3.12 mg/kg/injection, schedule: Q01DX009 (ip), vehicle: saline): 93 % of control
T/C (dose: 6.25 mg/kg/injection, schedule: Q01DX009 (ip), vehicle: saline): 97 % of control
T/C (dose: 12.5 mg/kg/injection, schedule: Q01DX009 (ip), vehicle: saline): 101 % of control
T/C [19]: 100 % of control

O=c1[nH]c(Nc2ccccc2)c([N+](=O)[O-])c(=O)[nH]1
T/C [4]: 106 % of control
T/C [5]: 107 % of control
T/C [6]: 106 % of control

COc1ccc(OC)c2c(C)c(C)c(Cl)nc12
T/C [1]: 92 % of control
T/C [2]: 107 % of control
T/C [3]: 95 % of control

O=C1C=C[C@@H](COC(c2ccccc2)(c2ccccc2)c2ccccc2)O1
T/C (dose: 100.0 mg/kg/injection, schedule: Q04DX002 (ip), vehicle: saline with Tween-80): 92 % of control
T/C (dose: 200.0 mg/kg/injection, schedule: Q04DX002 (ip), vehicle: saline with Tween-80): 86 % of control
T/C (dose: 400.0 mg/kg/injection, schedule: Q04DX002 (ip), vehicle: saline with Tween-80): 89 % of control

Cc1cc(NC(=O)Nc2ccc(Cl)cc2)no1
T/C [21]: 100 % of control
T/C [22]: 95 % of control
T/C [23]: 100 % of control

CCOc1ccc(CO)cc1
T/C [21]: 120 % of control
T/C [22]: 120 % of control
T/C [23]: 120 % of control

CN(C)/C=N/c1c(CO)c(-c2ccccc2)nn1-c1ccccc1
T/C [20]: 104 % of control
T/C [10]: 100 % of control
T/C [11]: 104 % of control
T/C [12]: 105 % of control

c1ccc(C2(c3ccc(C4(c5ccccc5)Oc5ccccc5S4)[nH]3)Oc3ccccc3S2)cc1 (configuration not stated)
T/C [4]: 96 % of control
T/C [5]: 107 % of control

C=C1C(=O)OC2/C=C(/C)C3(O)OC(C)(CC(OC(=O)C(C)C)C12)CC3OC(C)=O (configuration not stated)
T/C [13]: 110 % of control
T/C [14]: 116 % of control
